Patent US6280763A, “Apparatus and method for transdermal delivery of bupropion” (priority 1999, dated 2001)
“And” between values parts separate entries of the source, which are not always exact repeats. Equal values may be shown once. Where a name gives a salt, the structure may show the parent alone. Read-outs that look alike come from different tables or passages of the source.

Columns and labels:
[1] = oral administration; cited from earlier work
mice = details: metabolites identified in urine; cited from earlier work
[2] = in vivo; cited from earlier work
[3] = cited from earlier work
[4] = drug content of 80% saturated donor solution in propylene glycol; format: physicochemical; details: 80% of saturation, saturated at 32° C.
Procedure: For standardization, saturated solutions of bupropion in propylene glycol were made and 80% of the saturated solution was used as donor solutions. 1,100 mg bupropion has been suspended in 6.0 ml propylene glycol and was vortexed at 90 rpm for 68 hrs at 32° C. in a thermostated shaking cupboard. Controls have been done every 24 hrs to assure that sufficient undissolved drug was in the vessel. Thereafter the suspension was centrifuged (3,000 rpm) for 10 minutes and the clear supernatant was used as saturated solution.
For the diffusion experiments the donor solutions were freshly prepared for each experiment, 550 mg of the bupropion base were suspended in 3.0 ml propylene glycol (PG) and treated as previously described.
A spectroflow 400 pump (Separations, Hendrik Ido Ambacht, The Netherlands) was used to deliver the mobile phase, consisting of acetronitrile 0.1 m KF2 PO4 pH3 20:80 (v/v) with a flow rate of 0.8 ml/min. The mobile phase was degassed with a vacuum pump and chromatography was performed at ambient temperature. Sample amounts of 20 μl were injected with a Gilson model 321 autosampler (Gilson Middleton, Wisconsin USA) with a 20 microliter loop built in onto a inertsil 5 ODS column (Chrompack Nederland BV, Bergen op Zoom, The Netherlands). […] Bupropion base was detected by UV absorption at 310 nm using a spectra 100 spectrophometer (Spectra-Physics, Breda, The Netherlands). […]

[5] = rats; cited from earlier work
[6] = dogs; cited from earlier work
albumin = details: cited from earlier work
[7] = mouse, cited from earlier work
[8] = rat; cited from earlier work
[9] = dog, cited from earlier work
[10] = cited from earlier work; for Half-lives (t1/2app): human, in vivo
[11] = rats; cited from earlier work; remark: listed apart in the source
[12] = humans; cited from earlier work

Compound: CC(NC(C)(C)C)C(=O)c1cccc(Cl)c1 (centres unmarked) [carbon 14 bupropion]
- excreted unchanged [1]: less than 0.5%
- radioactivity recovered in the feces [1]: 10%
- radioactivity recovered in the urine [1]: 87%

Compound: CC1NC(C)(C)COC1(O)c1cccc(Cl)c1 (centres unmarked) [HB]
- activity in mice (mice): have shown activity in mice
- antidepressive effect potency relative to parent medicament [2]: half as potent
- AUC relative to medicament drug ([3]; single oral dose of bupropion): fifteen times
- Cmax relative to medicament drug ([3]; single oral dose of bupropion): three times
- speed of appearance in the systemic circulation relative to parent ([3]; single oral dose): almost as fast

Compound: C[C@H](NC(C)(C)CO)[C@H](O)c1cccc(Cl)c1 (relative stereo) [erythro amino diol]
- activity in mice (mice): have shown activity in mice
- quantifiability after oral dose ([3]; in vivo, po): not quantifiable

Compound: CC(NC(C)(C)C)C(=O)c1cccc(Cl)c1 (centres unmarked) [bupropion]
- drug content of 80% saturated solution [4]: 104 mg/ml PG
- absolute bioavailability [5]: five to twenty
- absolute bioavailability [6]: five to twenty
- bound to albumin (albumin): 80%
- reduction (induction of own metabolism) ([7]; over ten days): 58%
- induction of its own metabolism [7]: induces its own metabolism
- induction of its own metabolism [8]: induces its own metabolism
- reductions (induction of own metabolism) ([9]; two different dose levels, over one year of treatment): 76% and 90%
- induction of its own metabolism [9]: induces its own metabolism
- half-life change after multiple dosing ([10]; elderly patients, after multiple dosing): did not change significantly
- first pass metabolism ([3]; in vivo): very rapid first pass metabolism
- dose proportionality of drug blood concentration ([3]; oral dosage, 100 to 250 mgs): dose proportional from 100 to 250 mgs
- biological half life ([3]; oral dosage): approximately 14 hours
- biological half life, range ([3]; oral dosage): 8-24 hours
- time at which Cmax occurs ([3]; oral dosage): approximately 2 hours
- oral dose kinetics model ([3]; single oral dose): best described by a 2 compartment open model with first order absorption

Compound: C[C@H](NC(C)(C)C)[C@H](O)c1cccc(Cl)c1 (relative stereo) [EB]
- activity in mice (mice): have shown activity in mice
- Half-lives (t1/2app) [10]: 61.4 ± 21.6 h
- quantifiability after oral dose ([3]; in vivo, po): not quantifiable

Compound: CC(NC(C)(C)C)C(=O)c1cccc(Cl)c1 (centres unmarked) [bupropion hydrochloride]
- extent of metabolism [11]: highly metabolized
- extent of metabolism [12]: highly metabolized

Compound: C[C@@H](NC(C)(C)C)[C@H](O)c1cccc(Cl)c1 (relative stereo) [TB]
- activity in mice (mice): have shown activity in mice
- antidepressive effect potency relative to parent medicament [2]: half as parent medicament
- Half-lives (t1/2app) [10]: 38.8 ± 7.6 h
- kinetics relative to MM ([3]; in vivo, po): parallel that of MM
